{"source": "patent US8765776B2", "about": "“Antihypertensive pharmaceutical composition” (Boryung Pharmaceutical Co., Ltd., priority 2011, dated 2014)", "key": {"[1]": {"tested_on": "spontaneously hypertensive rats (SHR)", "test": "4-week repeated oral administration antihypertensive test in spontaneously hypertensive rats (non-invasive tail-cuff CODA-6)", "assay_type": "in vivo, rat", "details": "4 weeks; for Antihypertensive degree with consecutive 4-week administration of drugs, as compared to blood pressure prior to administration (Mean): n=8, F1 = Fimasartan potassium trihydrate 3 mg/kg, F2 = 10 mg/kg, L = Losartan potassium 10 mg/kg, V = Valsartan 10 mg/kg, A1 = Amlodipine besylate 0.5 mg/kg, A2 = 1.6 mg/kg", "from_the_text": "This study is intended to examine antihypertensive action of individual drugs. For this purpose, test drugs, i.e., Fimasartan potassium trihydrate, Losartan potassium salt, Valsartan, Amlodipine besylate, a combination of Fimasartan potassium trihydrate with Amlodipine besylate, a combination of Losartan potassium salt with Amlodipine besylate, and a combination of Valsartan with Amlodipine besylate were repeatedly and orally administered for 4 weeks to rats with essential hypertension. […] In this manner, the antihypertensive action was compared and evaluated between the individual drugs.\n8-week old male spontaneously hypertensive rats (SHR), weighing 230 to 250 g, were purchased from Charles River Japan (CRJ). The animals were used in the test, after being subjected to an acclimation period until the animals were 18 to 19-week old (340 to 380 g) to reach a mean blood pressure of 160 to 170 mmHg. Animals with a good condition were selected by minute observation over the acclimation period prior to the test, and divided into individual test groups, each consisting of 8 animals (n=8). Only the selected animals, from which a rise in blood pressure was confirmed using a non-invasive blood pressure monitoring system (CODA-6), were assigned to the test group.\nLow, medium and high doses of the drugs according to individual drugs were established in the preliminary test. […] All the doses referred to those used in the already performed test. Doses and drug-administered groups used in the final main test are as follows.\nAs an ARB compound, Losartan potassium salt, Valsartan and Fimasartan potassium trihydrate were respectively purchased and used from Zhejiang Huahai Pharmaceutical Co., Ltd. 10 mg/kg of Losartan potassium salt was taken as an L group, and 10 mg/kg of Valsartan was taken as a V group. With regard to Fimasartan potassium trihydrate, 3 mg/kg was taken as an F1 group, and 10 mg/kg was taken as an F2 group.\nAs a calcium channel blocker, Amlodipine besylate (home-made by the method described in U.S. Pat. No. 4,572,909) was used. 0.5 mg/kg of Amlodipine besylate was taken as an A 1 group, and a dose of 1.6 mg/kg was taken as an A2 group. The test materials and the comparative drugs were each suspended in 0.5% carboxymethylcellulose sodium salt (CMC—Na, Sigma) prior to using. As a control group, 0.5% CMC alone was administered.\n{circumflex over (3)} Test Method • Administration: Upon carrying out the administration, the drug preparation was heated to a suitable temperature of 35° in a water bath, followed by forced oral administration of 5 mL/kg via a stomach sonde. • Measurement of blood pressure: Blood pressure of rats was measured as follows. Rats were restrained and placed in a heating device which was then heated to a temperature of about 40° (based on the temperature of 37° in a restraining cage) over 13 minutes, such that the tail blood vessels were engorged, and the blood pressure of rats was measured using CODA-6 equipment that monitors a blood pressure by means of the software of the main body through a pair of cuffs attached to the tail. The non-invasive blood pressure measuring method via CODA-6 (Kent Scientific Corporation) enables a long-term blood pressure measuring test that should involve repeated administration of test materials, which is not feasible with a direct blood pressure measuring method through arterial cannulation, such as conventionally used physiograph or power lab.\nChanges in blood pressure were confirmed with focusing on changes in mean arterial pressure (MAP), and changes in diastolic and systolic blood pressure, heart rate, and body weight were used as references for other changes in the experimental results."}, "[2]": {"tested_on": "patients with mild to moderate essential hypertension", "details": "Week 12 of drug administration, dose 60 mg to 120 mg; cited from earlier work"}}, "note": "Where a name gives a salt, the structure may show the parent alone."}
{"smiles": "CCOC(=O)C1=C(COCCN)NC(C)=C(C(=O)OC)C1c1ccccc1Cl", "note": "(single isomer, unassigned) [Comparative Example 5, Amlodipine besylate]", "values": [{"measurement": "Antihypertensive degree with consecutive 4-week administration of drugs, as compared to blood pressure prior to administration (Mean)", "setting": "[1]", "value": "−13", "unit": "mmHg"}]}
{"smiles": "CCOC(=O)C1=C(COCCN)NC(C)=C(C(=O)OC)C1c1ccccc1Cl", "note": "(single isomer, unassigned) [Comparative Example 6, Amlodipine besylate]", "values": [{"measurement": "Antihypertensive degree with consecutive 4-week administration of drugs, as compared to blood pressure prior to administration (Mean)", "setting": "[1]", "value": "−20", "unit": "mmHg"}]}
{"smiles": "CCCCc1nc(C)c(CC(=S)N(C)C)c(=O)n1Cc1ccc(-c2ccccc2-c2nnn[nH]2)cc1", "note": "[Comparative Example 1, Fimasartan potassium trihydrate]", "values": [{"measurement": "Antihypertensive effect compared to Comparative Example 3 and Comparative Example 4", "setting": "[1]; 3 mg/kg Fimasartan potassium trihydrate vs 10 mg/kg Losartan potassium or Valsartan", "value": "superior antihypertensive effect"}, {"measurement": "Antihypertensive degree with consecutive 4-week administration of drugs, as compared to blood pressure prior to administration (Mean)", "setting": "[1]; potassium trihydrate", "value": "−35", "unit": "mmHg"}]}
{"smiles": "CCCCc1nc(C)c(CC(=S)N(C)C)c(=O)n1Cc1ccc(-c2ccccc2-c2nnn[nH]2)cc1", "note": "[Comparative Example 2, Fimasartan potassium trihydrate]", "values": [{"measurement": "Antihypertensive degree with consecutive 4-week administration of drugs, as compared to blood pressure prior to administration (Mean)", "setting": "[1]; potassium trihydrate", "value": "−50", "unit": "mmHg"}]}
{"smiles": "CCCCc1nc(Cl)c(CO)n1Cc1ccc(-c2ccccc2-c2nn[nH]n2)cc1", "note": "[Comparative Example 3, Losartan potassium salt]", "values": [{"measurement": "Antihypertensive degree with consecutive 4-week administration of drugs, as compared to blood pressure prior to administration (Mean)", "setting": "[1]", "value": "−20", "unit": "mmHg"}]}
{"smiles": "CCCCC(=O)N(Cc1ccc(-c2ccccc2-c2nnn[nH]2)cc1)[C@H](C(=O)O)C(C)C", "note": "[Comparative Example 4, Valsartan]", "values": [{"measurement": "Antihypertensive degree with consecutive 4-week administration of drugs, as compared to blood pressure prior to administration (Mean)", "setting": "[1]", "value": "−32", "unit": "mmHg"}]}
{"smiles": "CCCCc1nc(Cl)c(CO)n1Cc1ccc(-c2ccccc2-c2nn[nH]n2)cc1", "note": "[Losartan]", "values": [{"measurement": "Change in diastolic blood pressure (DBP) in the sitting position relative to baseline", "setting": "[2]", "value": "−8.56±7.72", "unit": "mmHg"}]}
